This note sets out measurements from PMC7616177, “From structure to clinic: Design of a muscarinic M1 receptor agonist with the potential to treat Alzheimer’s disease” (Cell, 2021).

One assay concerns the target T1, human M1 receptor (Homo sapiens, UniProt P11229).
T1 construct: expressed in transfected cells
T1 sequence (P11229 1-460): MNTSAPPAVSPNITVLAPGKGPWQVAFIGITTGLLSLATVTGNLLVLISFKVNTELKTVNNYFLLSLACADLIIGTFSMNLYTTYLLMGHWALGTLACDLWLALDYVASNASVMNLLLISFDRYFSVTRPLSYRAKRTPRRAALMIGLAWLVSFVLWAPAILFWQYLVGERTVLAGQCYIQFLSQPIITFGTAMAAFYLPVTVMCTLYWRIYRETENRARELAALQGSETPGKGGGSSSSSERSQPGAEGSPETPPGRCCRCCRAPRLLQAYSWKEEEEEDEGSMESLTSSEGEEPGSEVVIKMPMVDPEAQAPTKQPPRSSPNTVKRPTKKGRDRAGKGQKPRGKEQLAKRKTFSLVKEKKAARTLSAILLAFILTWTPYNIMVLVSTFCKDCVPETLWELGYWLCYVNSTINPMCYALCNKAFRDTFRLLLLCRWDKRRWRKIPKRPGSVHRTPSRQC
The assay can be described thus: M1-receptor functional agonist assays (pERK1/2 and calcium mobilisation) for hits and SAR. Type of assay: cell-based. (Calcium assays in cells follow changes in intracellular calcium, usually with a dye or a luminescent sensor.)

The target of another assay is T2, M2-receptor (Homo sapiens, UniProt P08172).
T2 sequence (P08172 1-466): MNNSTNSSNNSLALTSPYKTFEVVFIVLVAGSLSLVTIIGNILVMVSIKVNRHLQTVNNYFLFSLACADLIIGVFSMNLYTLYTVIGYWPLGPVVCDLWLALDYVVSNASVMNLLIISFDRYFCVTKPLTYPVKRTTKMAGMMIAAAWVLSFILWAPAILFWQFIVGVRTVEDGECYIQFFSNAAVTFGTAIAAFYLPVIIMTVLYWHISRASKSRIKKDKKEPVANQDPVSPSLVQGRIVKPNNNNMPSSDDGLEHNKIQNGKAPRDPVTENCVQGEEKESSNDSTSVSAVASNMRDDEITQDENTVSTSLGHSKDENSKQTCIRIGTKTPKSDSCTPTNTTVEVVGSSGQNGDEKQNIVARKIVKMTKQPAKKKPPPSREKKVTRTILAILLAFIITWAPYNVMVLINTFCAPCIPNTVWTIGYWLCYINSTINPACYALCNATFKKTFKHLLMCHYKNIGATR
The assay can be described thus: M2-receptor functional agonist assay. Type of assay: cell-based. The arrangement: expressed in transfected cells. How it is done: (§1) Functional assays were performed using the Alphascreen Surefire phopho-ERK1/2 assay. […] Once adhered, cells were serum starved overnight. Agonist stimulation was performed by the addition of […] agonist to the cells for a pre-optimized 5 min period (37°C). Media was removed and 50 μl of lysis buffer added. After 15 min a 4 μl sample was transferred to a 384-well plate and 7 μl of detection mixture added.

The next assay deals with T3, M4-receptor (Homo sapiens, UniProt P08173).
T3 sequence (P08173 1-479): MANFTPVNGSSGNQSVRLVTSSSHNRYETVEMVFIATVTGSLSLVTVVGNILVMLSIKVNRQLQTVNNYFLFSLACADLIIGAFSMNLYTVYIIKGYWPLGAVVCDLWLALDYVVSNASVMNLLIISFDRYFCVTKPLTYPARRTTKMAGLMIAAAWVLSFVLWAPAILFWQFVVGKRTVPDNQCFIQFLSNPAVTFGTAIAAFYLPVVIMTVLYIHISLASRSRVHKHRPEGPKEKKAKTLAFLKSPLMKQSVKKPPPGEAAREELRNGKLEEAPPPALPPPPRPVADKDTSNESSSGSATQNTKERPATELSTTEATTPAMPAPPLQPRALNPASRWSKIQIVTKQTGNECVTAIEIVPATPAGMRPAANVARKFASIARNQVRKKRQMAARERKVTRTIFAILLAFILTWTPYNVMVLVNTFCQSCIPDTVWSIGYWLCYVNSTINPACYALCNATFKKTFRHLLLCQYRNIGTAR
The assay can be described thus: M4-receptor functional agonist assay. The note with it: for EC50: read-out: M4-receptor EC50. Set-up: expressed in transfected cells. Type of assay: cell-based. On the procedure: as §1

A further assay addresses T4, M3-receptor (Homo sapiens, UniProt P20309).
T4 construct: expressed in transfected cells
The assay can be described thus: M3-receptor functional agonist assay. Type of assay: cell-based. How it is done: as §1

A further assay relates to Wistar rats. The assay can be described thus: Scopolamine-induced amnesia in passive avoidance. The format is in vivo, rat. The note with it: rat passive avoidance, donepezil 0.01 mg/kg. On the procedure:
Male adult Wistar rats (Harlan, UK; approximately 11 weeks of age) were acclimatised to the experimental rooms for three days (study days 1-3) and handled for a further two days (study days 4 and 5) prior to the experiment.
Donepezil (0.01 and 0.1 mg/kg) was administered via intraperitoneal injection (in saline) 60 min prior to training. Rats were trained in a single-trial, step-through, light-dark passive avoidance paradigm. The training apparatus consisted of a chamber 300 mm in length, 260 mm wide, and 270 mm in height. The front and top were transparent, allowing the experimenter to observe the behavior of the animal inside the apparatus. The chamber was divided into two compartments, separated by a central shutter that contained a small opening (50 mm wide and 75 mm high) set close to the front of the chamber. The smaller of the compartments measured 90 mm in width and contained a low-light (~200 lux) illumination source. The larger compartment measured 210 mm in width and was not illuminated. The floor of this dark compartment consisted of a grid of 16 horizontal stainless-steel bars that were 5 mm in diameter and spaced 12.5 mm apart. A current generator supplied 0.75 mA to the grid floor, which was scrambled once every 0.5 s across the 16 bars.
Animals were placed facing the rear of the light compartment of the apparatus, immediately after which, spontaneous behavior was assessed. The timer was started once the animal completely turned to face the front of the chamber. Latency to enter the dark chamber was recorded, and having completely entered the dark compartment foot shock was administered to the animal, which immediately returned to the light compartment. Animals were then returned to their home cages. Between each training session, both compartments of the chamber were cleaned to remove any confounding olfactory cues. Vehicle (saline) or scopolamine (1 mg/kg) was administered to rats 6 hours after training. Recall of the inhibitory stimulus was evaluated 24 hour post-training on study day 7, by returning the animal into the light chamber and recording their latency to enter the dark chamber, a criterion time of 600 s was employed. Observation of the animals was made by overhead video camera linked to a monitor behind a screened area. Animal treatment was blinded to the observer.

Setting [1] is: SAR, Table S4, read-out: M1-receptor agonist activity EC50.

Read-outs that look alike come from different tables or passages of the source.

T4 sequence (P20309 whole entry): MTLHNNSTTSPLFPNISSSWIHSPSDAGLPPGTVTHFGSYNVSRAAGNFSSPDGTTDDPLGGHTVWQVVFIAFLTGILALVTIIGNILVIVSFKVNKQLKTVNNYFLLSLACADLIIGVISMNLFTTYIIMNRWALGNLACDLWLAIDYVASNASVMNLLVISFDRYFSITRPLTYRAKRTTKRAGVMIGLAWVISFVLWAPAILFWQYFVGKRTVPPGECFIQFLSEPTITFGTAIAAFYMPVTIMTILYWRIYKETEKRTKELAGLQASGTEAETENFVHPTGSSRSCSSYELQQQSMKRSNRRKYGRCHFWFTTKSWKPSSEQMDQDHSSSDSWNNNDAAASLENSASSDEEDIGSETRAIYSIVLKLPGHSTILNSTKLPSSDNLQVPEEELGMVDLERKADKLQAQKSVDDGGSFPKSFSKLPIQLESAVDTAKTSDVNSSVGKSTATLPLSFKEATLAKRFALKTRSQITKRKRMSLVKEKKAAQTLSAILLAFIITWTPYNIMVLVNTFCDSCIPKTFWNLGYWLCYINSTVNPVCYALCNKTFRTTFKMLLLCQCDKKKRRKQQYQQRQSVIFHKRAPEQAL

Regarding `CCOC(=O)N1CCC(N2CCC(C(=O)NCC(C)C)CC2)CC1` [Compound 5], the concentration giving a half-maximal response (EC50) on human M1 receptor (setting [1]) was 316 nM. Further, the M2-receptor agonist activity entry at M2-receptor was “weak”. Besides, the M4-receptor agonist activity result on M4-receptor was “weak”.
As to `Cc1cc(F)c2[nH]c(=O)n(C3CCN(C4CCOCC4)CC3)c2c1` [GSK1034702, reference compound], the M2-receptor agonist activity entry at M2-receptor is listed as “significant M2-receptor agonist activity”.
Consider `CCOC(=O)N1CCC(N2CCC(C(N)=O)CC2)CC1` [Compound 4], for which the EC50 at human M1 receptor (fragment hit, read-out: EC50 at the M1-receptor) is 3500 nM.
Turning to `CCOC(=O)N1CCC[C@@H](N2CCC(C(=O)NC3(C)CCC3)CC2)CC1` [(R)-Compound 7], the EC50 at human M1 receptor (setting [1]) is 398 nM; on M3-receptor (read-out: M3-receptor EC50), over 20000 nM; on M2-receptor (read-out: M2-receptor EC50), over 20000 nM; at M4-receptor, 2500 nM.
As to `COc1cc2c(cc1OC)C(=O)C(CC1CCN(Cc3ccccc3)CC1)C2` (stereo not drawn) [donepezil, reference compound], the Response alone result in the assay on Wistar rats was “inactive”.
With `CCOC(=O)N1CCCC(N2CCC(C(=O)NCC(C)C)CC2)CC1` (stereo not drawn) [Compound 6], the EC50 at human M1 receptor (calcium assays, read-out: Potency at the M1-receptor in calcium assays EC50) turned out to be 79 nM; on M4-receptor it was 794 nM. In addition, on M3-receptor, the M3-receptor agonist activity entry is “no detectable agonist activity”. In addition, the M2-receptor agonist activity entry on M2-receptor is recorded as “no detectable agonist activity”. The “Lower potency at M4-receptors relative to M1” value on M4-receptor (M4 vs M1) is on record as “ten-fold”.

By EC50 is commonly meant the concentration giving half of the maximal effect.
